Reference: US20260365670A1, “EGFR INHIBITORS AND USES THEREOF” (DIZAL (JIANGSU) PHARMACEUTICAL CO., LTD., priority 2022, published 2026)
Read-outs that look alike come from different tables or passages of the source.

Key:
EGFR wild type = molecular target: T1, EGFR wild type (Homo sapiens, UniProt P00533); experiment: Inhibition of EGFR wild type biochemical enzymatic activity (HTRF); details: 1 mM ATP
T1 construct: purchased Carna Bio
Summary of the method: (§1)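 Phosphorylation of TK Substrate-biotin (1 μM) was measured at 1 mM ATP over a 1 h room-temperature incubation with serially varied compound. Detection was by HTRF ratio and analysis by 4PL fit to IC50.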

EGFR[T790M/C797S/L858R] = molecular target: T2, EGFR[T790M/C797S/L858R] (Homo sapiens, UniProt P00533, C797S/L858R/T790M); experiment: Inhibition of EGFR[T790M/C797S/L858R] biochemical enzymatic activity (HTRF); details: 1 mM ATP
T2 construct: purchased Carna Bio
Summary of the method: as §1

EGFR L858R = molecular target: T3, EGFR L858R (Homo sapiens, UniProt P00533, L858R); experiment: Inhibition of EGFR L858R biochemical enzymatic activity (HTRF); details: 1 mM ATP
T3 construct: purchased Carna Bio
Summary of the method: as §1

EGFR Exon19Del/T790M = molecular target: T4, EGFR Exon19Del/T790M (Homo sapiens, UniProt P00533, DEL746-750/T790M); experiment: Inhibition of EGFR Exon19Del/T790M biochemical enzymatic activity (HTRF); details: 1 mM ATP
T4 construct: purchased Carna Bio
Summary of the method: as §1

EGFR (d746-750 C797S) = molecular target: T5, EGFR (d746-750 C797S) (Homo sapiens, UniProt P00533, C797S/DEL746-750); experiment: Inhibition of EGFR (d746-750 C797S) biochemical enzymatic activity (HTRF); details: 1 mM ATP
T5 construct: purchased signalchem
Summary of the method: as §1

[1] = molecular target: T6, EGFR[T790M/C797S/d746-750] (Homo sapiens, UniProt P00533, C797S/DEL746-750/T790M); experiment: Inhibition of EGFR[T790M/C797S/d746-750] biochemical enzymatic activity (HTRF)
T6 construct: purchased Carna Bio
Summary of the method: as §1

EGFR Exon19Del = molecular target: T7, EGFR Exon19Del (Homo sapiens, UniProt P00533, DEL746-750); experiment: Inhibition of EGFR Exon19Del biochemical enzymatic activity (HTRF); details: read-out: IC50 @Del19
T7 construct: purchased Carna Bio
Summary of the method: as §1

EGFR (C797S L858R) = molecular target: T8, EGFR (C797S L858R) (Homo sapiens, UniProt P00533, C797S/L858R); experiment: Inhibition of EGFR (C797S L858R) biochemical enzymatic activity (HTRF); details: 1 mM ATP
T8 construct: purchased signalchem
Summary of the method: as §1

EGFR L858R/T790M = molecular target: T9, EGFR L858R/T790M (Homo sapiens, UniProt P00533, L858R/T790M); experiment: Inhibition of EGFR L858R/T790M biochemical enzymatic activity (HTRF); details: 1 mM ATP
T9 construct: purchased Carna Bio
Summary of the method: as §1

[2] = tested on: Ba/F3 cells expressing EGFR mutations; experiment: Cell proliferation assay, Ba/F3 cells expressing EGFR mutations (CellTiter-Glo, 72 hours); format: cell-based
Summary of the method: (§2)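 GI50 is the concentration giving 50% proliferation inhibition. Growth for this was normalised to a baseline viability reading taken when compound was added, and to DMSO wells. PC-9 (500 cells/well) and mutant-EGFR Ba/F3 (5000 cells/well) are treated after overnight seeding in RPMI1640-based medium.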

PC-9 = experiment: Cell proliferation assay, PC-9 cells (CellTiter-Glo, 72 hours); format: cell-based; details: PC9 cells
Summary of the method: as §2

[3] = EGFR wild type, 1 h at room temperature, read-out: IC50 @WT
[4] = EGFR[T790M/C797S/L858R], 1 h at room temperature, read-out: IC50 @T790M- C797S - L858R
[5] = 1 h at room temperature, read-out: IC50 @L858R
[6] = EGFR Exon19Del/T790M, 1 h at room temperature, read-out: IC50 @Del19-T790M
[7] = EGFR (d746-750 C797S), 1 h at room temperature, read-out: IC50 @Del19-C797S
[8] = EGFR[T790M/C797S/d746-750], 1 mM ATP, 1 h at room temperature, read-out: IC50 @T790M - C797S - Del19
[9] = EGFR Exon19Del, 1 mM ATP, 1 h at room temperature
[10] = EGFR (C797S L858R), 1 h at room temperature, read-out: IC50 @L858-C797S
[11] = EGFR L858R/T790M, 1 h at room temperature, read-out: IC50 @L858R-T790M

T1 sequence (P00533 25-1210): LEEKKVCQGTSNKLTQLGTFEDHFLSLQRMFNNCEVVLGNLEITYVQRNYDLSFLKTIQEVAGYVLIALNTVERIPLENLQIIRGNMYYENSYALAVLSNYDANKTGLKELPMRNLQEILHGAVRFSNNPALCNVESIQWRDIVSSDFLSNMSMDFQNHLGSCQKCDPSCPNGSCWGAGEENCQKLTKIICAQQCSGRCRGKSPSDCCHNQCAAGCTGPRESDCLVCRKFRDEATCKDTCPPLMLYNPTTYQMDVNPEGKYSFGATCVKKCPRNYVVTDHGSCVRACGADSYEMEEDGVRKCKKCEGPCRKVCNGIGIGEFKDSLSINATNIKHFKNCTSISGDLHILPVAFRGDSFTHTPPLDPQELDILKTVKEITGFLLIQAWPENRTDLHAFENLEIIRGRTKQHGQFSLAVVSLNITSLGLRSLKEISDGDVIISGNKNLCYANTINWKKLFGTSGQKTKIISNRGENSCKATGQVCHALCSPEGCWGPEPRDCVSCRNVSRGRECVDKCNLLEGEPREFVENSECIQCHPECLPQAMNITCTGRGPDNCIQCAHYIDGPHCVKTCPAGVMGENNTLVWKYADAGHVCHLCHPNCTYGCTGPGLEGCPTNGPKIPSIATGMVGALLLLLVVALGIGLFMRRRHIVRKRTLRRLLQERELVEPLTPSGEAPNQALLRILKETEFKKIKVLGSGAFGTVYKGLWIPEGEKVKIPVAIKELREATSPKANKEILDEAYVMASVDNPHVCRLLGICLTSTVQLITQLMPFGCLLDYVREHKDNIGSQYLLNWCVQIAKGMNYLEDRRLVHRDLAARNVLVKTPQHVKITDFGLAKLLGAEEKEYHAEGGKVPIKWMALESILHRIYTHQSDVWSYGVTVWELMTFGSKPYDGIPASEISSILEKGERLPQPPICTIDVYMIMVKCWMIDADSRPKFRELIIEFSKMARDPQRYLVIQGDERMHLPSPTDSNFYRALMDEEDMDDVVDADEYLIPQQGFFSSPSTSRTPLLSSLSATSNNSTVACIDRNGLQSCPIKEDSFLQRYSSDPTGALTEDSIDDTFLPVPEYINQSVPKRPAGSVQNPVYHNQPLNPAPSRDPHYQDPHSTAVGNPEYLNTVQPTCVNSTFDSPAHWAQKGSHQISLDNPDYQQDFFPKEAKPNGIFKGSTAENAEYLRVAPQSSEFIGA
T6 sequence (P00533 with tags, fused parts or gaps DEL746-750/T790M/C797S limits assumed): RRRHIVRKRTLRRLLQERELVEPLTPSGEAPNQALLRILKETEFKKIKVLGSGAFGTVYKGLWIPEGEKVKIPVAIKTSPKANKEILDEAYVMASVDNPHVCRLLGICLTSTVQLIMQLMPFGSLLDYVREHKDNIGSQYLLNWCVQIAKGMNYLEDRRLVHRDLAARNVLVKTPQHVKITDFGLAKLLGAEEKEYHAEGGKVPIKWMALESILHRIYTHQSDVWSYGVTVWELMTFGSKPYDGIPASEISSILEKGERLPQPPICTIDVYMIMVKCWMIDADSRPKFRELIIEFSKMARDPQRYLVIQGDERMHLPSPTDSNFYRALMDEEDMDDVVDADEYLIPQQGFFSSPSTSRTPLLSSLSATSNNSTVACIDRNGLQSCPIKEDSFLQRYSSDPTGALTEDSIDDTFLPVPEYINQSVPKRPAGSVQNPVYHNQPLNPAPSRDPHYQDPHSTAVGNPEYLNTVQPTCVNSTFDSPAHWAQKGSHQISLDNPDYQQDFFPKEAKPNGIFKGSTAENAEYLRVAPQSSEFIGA
T9 sequence (P00533 25-1210 T790M/L858R): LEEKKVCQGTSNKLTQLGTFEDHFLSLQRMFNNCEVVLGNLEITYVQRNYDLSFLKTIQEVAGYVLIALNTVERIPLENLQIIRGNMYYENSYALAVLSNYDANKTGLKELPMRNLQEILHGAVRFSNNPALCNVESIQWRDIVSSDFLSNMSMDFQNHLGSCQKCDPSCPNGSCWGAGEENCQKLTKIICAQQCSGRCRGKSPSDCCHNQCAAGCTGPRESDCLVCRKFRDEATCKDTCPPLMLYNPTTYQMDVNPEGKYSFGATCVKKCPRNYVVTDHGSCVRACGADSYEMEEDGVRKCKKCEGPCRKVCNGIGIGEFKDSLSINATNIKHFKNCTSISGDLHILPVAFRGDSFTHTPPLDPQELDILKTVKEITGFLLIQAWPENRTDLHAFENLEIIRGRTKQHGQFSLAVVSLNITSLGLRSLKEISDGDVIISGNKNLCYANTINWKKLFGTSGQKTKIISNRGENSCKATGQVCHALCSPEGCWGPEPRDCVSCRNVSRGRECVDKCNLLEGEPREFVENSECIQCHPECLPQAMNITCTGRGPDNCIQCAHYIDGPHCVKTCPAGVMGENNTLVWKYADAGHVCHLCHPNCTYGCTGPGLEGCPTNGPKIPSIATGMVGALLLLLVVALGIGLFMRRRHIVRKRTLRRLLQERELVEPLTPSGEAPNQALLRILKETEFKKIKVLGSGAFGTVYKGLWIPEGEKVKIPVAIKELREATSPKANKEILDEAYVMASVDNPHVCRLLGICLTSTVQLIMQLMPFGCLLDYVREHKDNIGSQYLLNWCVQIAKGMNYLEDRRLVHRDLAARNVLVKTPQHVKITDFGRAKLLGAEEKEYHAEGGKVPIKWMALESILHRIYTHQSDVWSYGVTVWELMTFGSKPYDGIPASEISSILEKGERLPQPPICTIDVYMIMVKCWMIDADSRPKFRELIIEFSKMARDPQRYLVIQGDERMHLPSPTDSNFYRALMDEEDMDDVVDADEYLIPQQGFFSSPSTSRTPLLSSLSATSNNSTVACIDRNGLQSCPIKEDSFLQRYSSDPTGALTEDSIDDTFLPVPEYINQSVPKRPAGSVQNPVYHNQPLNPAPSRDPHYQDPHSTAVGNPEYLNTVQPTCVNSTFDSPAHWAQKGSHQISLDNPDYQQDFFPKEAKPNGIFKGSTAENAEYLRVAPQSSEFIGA
T7 sequence (P00533 with tags, fused parts or gaps DEL746-750 limits assumed): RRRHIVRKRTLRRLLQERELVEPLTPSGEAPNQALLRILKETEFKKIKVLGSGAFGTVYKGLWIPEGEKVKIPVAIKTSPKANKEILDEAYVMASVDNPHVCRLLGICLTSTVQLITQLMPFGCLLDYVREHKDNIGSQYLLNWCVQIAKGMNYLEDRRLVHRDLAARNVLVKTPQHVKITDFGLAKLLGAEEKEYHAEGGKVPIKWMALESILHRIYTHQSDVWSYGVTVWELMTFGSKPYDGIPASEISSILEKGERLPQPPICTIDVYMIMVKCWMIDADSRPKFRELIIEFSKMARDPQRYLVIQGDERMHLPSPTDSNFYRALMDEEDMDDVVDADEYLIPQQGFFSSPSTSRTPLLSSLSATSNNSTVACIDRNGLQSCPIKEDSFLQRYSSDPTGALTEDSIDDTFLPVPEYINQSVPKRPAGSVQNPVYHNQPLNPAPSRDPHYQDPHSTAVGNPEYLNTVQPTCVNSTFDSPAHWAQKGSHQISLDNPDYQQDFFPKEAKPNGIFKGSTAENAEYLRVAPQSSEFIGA
T2 sequence (P00533 25-1210 T790M/C797S/L858R): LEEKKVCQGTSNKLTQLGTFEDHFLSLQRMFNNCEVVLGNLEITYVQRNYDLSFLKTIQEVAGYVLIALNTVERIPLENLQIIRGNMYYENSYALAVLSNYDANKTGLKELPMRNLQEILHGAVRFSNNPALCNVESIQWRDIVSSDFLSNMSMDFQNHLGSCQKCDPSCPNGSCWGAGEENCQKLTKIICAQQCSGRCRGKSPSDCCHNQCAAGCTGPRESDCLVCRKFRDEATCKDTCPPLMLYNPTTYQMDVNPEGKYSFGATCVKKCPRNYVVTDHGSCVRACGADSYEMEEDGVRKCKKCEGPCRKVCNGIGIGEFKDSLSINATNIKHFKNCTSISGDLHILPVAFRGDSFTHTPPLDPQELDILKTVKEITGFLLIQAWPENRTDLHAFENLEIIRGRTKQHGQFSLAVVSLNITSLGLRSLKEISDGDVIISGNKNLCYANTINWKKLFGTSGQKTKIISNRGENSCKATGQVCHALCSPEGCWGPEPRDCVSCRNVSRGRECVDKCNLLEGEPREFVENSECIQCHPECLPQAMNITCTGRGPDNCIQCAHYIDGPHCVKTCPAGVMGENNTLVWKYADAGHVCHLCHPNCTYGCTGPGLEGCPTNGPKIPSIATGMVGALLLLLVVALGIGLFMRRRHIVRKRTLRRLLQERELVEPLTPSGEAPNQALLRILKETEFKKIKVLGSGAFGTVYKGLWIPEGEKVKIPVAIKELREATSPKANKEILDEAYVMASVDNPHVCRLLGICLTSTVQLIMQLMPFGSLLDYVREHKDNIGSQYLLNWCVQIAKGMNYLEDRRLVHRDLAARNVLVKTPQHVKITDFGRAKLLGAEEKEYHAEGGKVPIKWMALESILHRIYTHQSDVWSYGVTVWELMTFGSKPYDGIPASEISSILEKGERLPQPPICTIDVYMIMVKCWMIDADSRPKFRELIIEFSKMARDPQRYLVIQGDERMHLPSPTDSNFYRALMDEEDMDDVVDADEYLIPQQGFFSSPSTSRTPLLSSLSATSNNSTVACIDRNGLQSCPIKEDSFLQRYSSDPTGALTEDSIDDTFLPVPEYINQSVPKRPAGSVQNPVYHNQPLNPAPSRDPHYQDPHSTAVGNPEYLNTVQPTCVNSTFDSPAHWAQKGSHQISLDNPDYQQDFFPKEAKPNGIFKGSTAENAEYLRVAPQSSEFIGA

`Cc1cc2cc(n1)-c1cnn(C)c1OCCN1CC3CCC(CC3)(C1)n1c(nc3ccc(N4CC[C@@H](N(C)C)C4)cc31)NC2=O` [Example B29] gave an IC50 (EGFR wild type; [3]) greater than 5000 nM, an IC50 (EGFR[T790M/C797S/L858R]; [4]) of 13 nM and an IC50 (EGFR L858R; [5]) of 352 nM. It also gave an IC50 (EGFR Exon19Del/T790M; [6]) of 17 nM, an IC50 (EGFR (d746-750 C797S); [7]) of 28 nM and an IC50 [1, 8] of 8.6 nM. It also gave an IC50 (EGFR Exon19Del; [9]) of 45 nM, an IC50 (EGFR (C797S L858R); [10]) of 204 nM and an IC50 (EGFR L858R/T790M; [11]) of 28 nM. The GI50 ([2]; Mus musculus, BaF3, 72 h, BaF3 cells, EGFR DEL19 - C797S, read-out: GI50 DEL19 - C797S/BaF3) was 26 nM, the GI50 ([2]; Mus musculus, BaF3, 72 h, BaF3 cells, EGFR DEL19 - T790-C797S, read-out: GI50 DEL19 - T790-C797S/BaF3) was 9 nM and the GI50 ([2]; Mus musculus, BaF3, 72 h, BaF3 cells, EGFR L858R - C797S, read-out: GI50 L858R - C797S/BaF3) was 171 nM. The GI50 ([2]; Mus musculus, BaF3, 72 h, BaF3 cells, EGFR L858R - T790-C797S, read-out: GI50 L858R - T790-C797S/BaF3) was 19 nM, the GI50 ([2]; Mus musculus, BaF3, 72 h, BaF3 cells, EGFR L858R - T790M, read-out: GI50 L858R - T790M/BaF3) was 37 nM and the GI50 ([2]; Mus musculus, BaF3, 72 h, BaF3 cells, EGFR L858R, read-out: GI50 L858R/BaF3) was 149 nM. It also gave a GI50 ([2]; Mus musculus, BaF3, 72 h, EGFR DEL19 - T790M, read-out: GI50 DEL19 - T790M) of 11 nM and a GI50 (PC-9; Homo sapiens, PC-9, 72 h, read-out: GI50 PC9) of 155 nM.

Molecule `CN1CCC2(CCN(c3ccc4nc5n(c4c3)C34CCC(CN(CCOc6c(cnn6C)-c6cc(cn(C)c6=O)C(=O)N5)C3)C4)CC2)C1` (single isomer, unassigned) [Example A82A] has an IC50 (EGFR wild type; EGFR WT, 1 h, room temperature, read-out: IC50 (nM) @WT) of 341 nM, an IC50 (EGFR[T790M/C797S/L858R]; EGFR T790M-C797S-L858R, 1 h, room temperature, read-out: IC50 (nM) @T790M- C797S - L858R) greater than 5000 nM and an IC50 (EGFR L858R; 1 h, room temperature, read-out: IC50 (nM) @L858R) of 1210 nM. It also gave an IC50 (EGFR Exon19Del/T790M; EGFR Del19-T790M, 1 h, room temperature, read-out: IC50 (nM) @Del19-T790M) of 1410 nM, an IC50 (EGFR (d746-750 C797S); EGFR Del19-C797S, 1 h, room temperature, read-out: IC50 (nM) @Del19-C797S) of 226 nM and an IC50 ([1]; EGFR T790M-C797S-Del19, 1 mM ATP, 1 h, room temperature, read-out: IC50 (nM) @T790M - C797S - Del19) of 629 nM. For the same molecule, the IC50 (EGFR Exon19Del; EGFR Del19, 1 mM ATP, 1 h, room temperature) was 310 nM, the IC50 (EGFR (C797S L858R); EGFR L858-C797S, 1 h, room temperature, read-out: IC50 (nM) @L858-C797S) was 2140 nM and the IC50 (EGFR L858R/T790M; EGFR L858R-T790M, 1 h, room temperature, read-out: IC50 (nM) @L858R-T790M) was greater than 5000 nM. For the same molecule, the GI50 ([2]; BaF3 cells, EGFR DEL19-C797S, CellTiter-Glo, read-out: DEL19-C797S/BaF3 GI50) was 96 nM, the GI50 ([2]; BaF3 cells, EGFR DEL19-T790-C797S, CellTiter-Glo, read-out: DEL19-T790-C797S/BaF3 GI50) was 186 nM and the GI50 ([2]; BaF3 cells, EGFR L858R, CellTiter-Glo, read-out: L858R/BaF3 GI50) was 108 nM. It also gave a GI50 ([2]; BaF3 cells, EGFR L858R-C797S, CellTiter-Glo, read-out: L858R-C797S/BaF3 GI50) of 76 nM, a GI50 ([2]; BaF3 cells, EGFR L858R-T790-C797S, CellTiter-Glo, read-out: L858R-T790-C797S/BaF3 GI50) of 129 nM and a GI50 ([2]; BaF3 cells, EGFR L858R-T790M, CellTiter-Glo, read-out: L858R-T790M/BaF3 GI50) of 137 nM. It also gave a GI50 ([2]; EGFR DEL19-T790M, CellTiter-Glo, read-out: DEL19-T790M GI50) of 200 nM and a GI50 (PC-9; CellTiter-Glo, read-out: PC9 GI50) of 92 nM.

`Cc1cc2cc(n1)-c1cnn(C)c1OCCN1CC3CCC(C3)(C1)n1c(nc3ccc(N4CCC(N5CCN(C)CC5)C4)cc31)NC2=O` (single isomer, unassigned) [Example B49A] gave an IC50 (EGFR wild type; [3]) greater than 5000 nM, an IC50 (EGFR[T790M/C797S/L858R]; [4]) greater than 5000 nM and an IC50 (EGFR L858R; [5]) greater than 5000 nM. It also gave an IC50 (EGFR Exon19Del/T790M; [6]) of 481 nM, an IC50 (EGFR (d746-750 C797S); [7]) greater than 5000 nM and an IC50 [1, 8] of 289 nM. The IC50 (EGFR Exon19Del; [9]) was greater than 5000 nM, the IC50 (EGFR (C797S L858R); [10]) was greater than 5000 nM and the IC50 (EGFR L858R/T790M; [11]) was greater than 5000 nM. For the same molecule, the GI50 ([2]; BaF3 cells, EGFR DEL19 - C797S, read-out: GI50 DEL19 - C797S/BaF3) was 325 nM, the GI50 ([2]; BaF3 cells, EGFR DEL19 - T790-C797S, read-out: GI50 DEL19 - T790-C797S/BaF3) was 606 nM and the GI50 ([2]; BaF3 cells, EGFR L858R - C797S, read-out: GI50 L858R - C797S/BaF3) was 750 nM. For the same molecule, the GI50 ([2]; BaF3 cells, EGFR L858R - T790-C797S, read-out: GI50 L858R - T790-C797S/BaF3) was 57 nM, the GI50 ([2]; BaF3 cells, EGFR L858R - T790M, read-out: GI50 L858R - T790M/BaF3) was 353 nM and the GI50 ([2]; BaF3 cells, EGFR L858R, read-out: GI50 L858R/BaF3) was 931 nM. The GI50 ([2]; EGFR DEL19 - T790M, read-out: GI50 DEL19 - T790M) was 550 nM and the GI50 (PC-9; read-out: GI50 PC9) was 1480 nM.
